Activity calls are given as the source filed them. The rule behind the calls is not given here.
Key:
[1] = tested on: Mus musculus; experiment: Analgesic activity in Swiss albino mouse assessed as inhibition of acetic acid-induced abdominal constriction at 10 mg/kg administered for 30 mins followed by acetic acid challenge measured after 30 mins relative to vehicle-treated control; type: functional; conditions: 0.5 h
[2] = tested on: Mus musculus; experiment: Analgesic activity in Swiss albino mouse assessed as inhibition of formalin-induced paw flinching at 10 mg/kg administered for 30 mins followed by formalin challenge measured during first 5 mins post formalin challenge; type: functional
[3] = tested on: Mus musculus; experiment: Analgesic activity in Swiss albino mouse assessed as inhibition of formalin-induced paw flinching at 10 mg/kg administered for 30 mins followed by formalin challenge measured during 10 to 30 mins post formalin challenge relative to vehicle-treated control; type: functional
[4] = tested on: Mus musculus; experiment: Analgesic activity in Swiss albino mouse assessed as inhibition of acetic acid-induced abdominal constriction at 100 ug/kg administered for 30 mins followed by acetic acid challenge measured after 30 mins; type: functional
[5] = tested on: Mus musculus; experiment: Analgesic activity in Swiss albino mouse assessed as inhibition of acetic acid-induced abdominal constriction at 80 ug/kg administered for 30 mins followed by acetic acid challenge measured after 30 mins; type: functional
[6] = tested on: Mus musculus; experiment: Analgesic activity in Swiss albino mouse assessed as inhibition of formalin-induced paw flinching at 80 ug/kg administered for 30 mins followed by formalin challenge measured during 10 to 30 mins post formalin challenge; type: functional
[7] = tested on: Mus musculus; experiment: Analgesic activity in Swiss albino mouse assessed as inhibition of acetic acid-induced abdominal constriction at 10 mg/kg administered for 30 mins followed by acetic acid challenge measured after 30 mins in presence of opioid receptor antagonist naloxone; type: functional, organism-based
[8] = tested on: Mus musculus; experiment: Analgesic activity in Swiss albino mouse assessed as inhibition of formalin-induced paw flinching at 10 mg/kg administered for 30 mins followed by formalin challenge measured during 10 to 30 mins post formalin challenge in presence of opioid receptor antagonist naloxone; type: functional, organism-based
[9] = tested on: Mus musculus; experiment: Analgesic activity in Swiss albino mouse assessed as inhibition of acetic acid-induced abdominal constriction at 10 mg/kg administered for 30 mins followed by acetic acid challenge measured after 30 mins in presence of prostaglandin analogue misoprostol; type: functional, organism-based
[10] = tested on: THP-1; experiment: Antiinflammatory activity in PMA-treated human THP1 cells assessed as inhibition of LPS-induced TNF-alpha production after 24 hrs by ELISA; type: functional, cell-based; conditions: THP-1, 24 h
[11] = tested on: THP-1; experiment: Antiinflammatory activity in PMA-treated human THP1 cells assessed as inhibition of LPS-induced IL-6 production after 24 hrs by ELISA; type: functional, cell-based; conditions: THP-1, 24 h
[12] = tested on: THP-1; experiment: Cytotoxicity against human THP1 cells assessed as decrease in cell proliferation after 24 to 48 hrs by MTT assay; type: cell-based
[13] = tested on: Mus musculus; experiment: Acute toxicity in Swiss albino mouse assessed as behavioral abnormality at 50 to 2000 mg/kg after 14 days; type: organism-based; conditions: in vivo, 336 h
[14] = tested on: Mus musculus; experiment: Acute toxicity in Swiss albino mouse assessed as effect on myocardium at 2000 mg/kg after 14 days by hematoxylin and eosin staining based assay; type: organism-based; conditions: in vivo, 336 h
[15] = tested on: Mus musculus; experiment: Acute toxicity in Swiss albino mouse assessed as effect on liver at 2000 mg/kg after 14 days by hematoxylin and eosin staining based assay; type: organism-based; conditions: in vivo, 336 h

## COc1ccc2c(c1)c(CC(=O)O)c(C)n2C(=O)c1ccc(Cl)cc1 [INDOMETHACIN]
[1]
  inhibition in vivo at 10 mg/kg: 56.7%
[2]
  inhibition: inactive
[3]
  inhibition in vivo at 10 mg/kg: 50.6%

## CCCC[C@](C)(O)C/C=C/[C@H]1[C@H](O)CC(=O)[C@@H]1CCCCCCC(=O)OC
[4]
  inhibition: inactive

## CN[C@@]1(C)c2cc(OC)ccc2OC[C@H]1CO
[1]
  inhibition in vivo at 10 mg/kg: 63.2%

## C=CCN1CC[C@]23c4c5ccc(O)c4O[C@H]2C(=O)CC[C@@]3(O)[C@H]1C5
[5]
  inhibition: inactive
[6]
  inhibition: inactive

## CN[C@@]1(C)c2cc(C)ccc2OC[C@H]1CO
[1]
  inhibition in vivo at 10 mg/kg: 59.3%

## Cc1ccc2c(c1)[C@@]1(C)[C@@H](CO2)CON1C
[1]
  inhibition in vivo at 10 mg/kg: 68.2%

## COc1ccc2c(c1)[C@@]1(C)[C@@H](CO2)CON1C
[1]
  inhibition in vivo at 10 mg/kg: 69.4%
[2]
  inhibition in vivo at 10 mg/kg: 62.7%
[3]
  inhibition in vivo at 10 mg/kg: 68.3%
[7]
  inhibition: inactive
[8]
  inhibition: inactive
[9]
  inhibition: Active
[10]
  IC50: 4.58 µM
[11]
  IC50: 1.12 µM
[12]
  IC50: > 100 µM
[13]
  Activity: Non-Toxic
[14]
  Activity: Non-Toxic
[15]
  Activity: Non-Toxic

From ChEMBL document CHEMBL4004804, “Rationally designed benzopyran fused isoxazolidines and derived β2,3,3-amino alcohols as potent analgesics: Synthesis, biological evaluation and molecular docking analysis” (Eur J Med Chem, 2017)
